Experimental data reported in US12599134B2, “Herbicidal compositions comprising acetochlor” (BASF SE, priority 2024, dated 2026).

Experiments:
emerged weeds [1] = test: Post-emergence application in field trials (expected value by Colby); type: in vivo
Method: (§1) In the examples below, using the method of S. R. Colby (1967) “Calculating synergistic and antagonistic responses of herbicide combinations”, Weeds 15, p. 22ff., the value E, which is expected if the activity of the individual active compounds is only additive, was calculated:
(§2) [formula] • where • X=percent activity using active herbicide A at an application rate a; • Y=percent activity using active herbicide B (e.g. acetochlor) at an application rate b; • E=expected activity (in %) by A+B at application rates a+b.
(§3) If the value found experimentally is higher than the value E calculated according to Colby, a synergistic effect is present.
(§4) Evaluation was carried out using a scale from 0 to 100. 100 means no emergence of the plants, or complete destruction of at least the above-ground parts, and 0 means no damage or normal course of growth. A good herbicidal activity is given at values of at least 70, and very good herbicidal activity is given at values of at least 85.
Herbicide A-1 and acetochlor were, together with addition of 0.25% MSO (methylated sed oil) as adjuvant, formulated in water as distribution medium (water volume 200 l/ha) and sprayed with commercial flat fan nozzles.

emerged weeds [2] = test: Post-emergence application in greenhouse trials (scale 0 to 100; expected value by Colby); type: in vivo
Method: as §1, §2, §3
The culture containers used were plastic pots containing loamy sand with approximately 3.0% of humus as substrate. The seeds of the test plants were sown separately for each species.
[…] To this end, the test plants were either sown directly, and grown in the same containers, or they were first grown separately as seedlings and transplanted into the test containers a few days prior to treatment.
Depending on the species, the plants were kept at 10-25° C. and 20-35° C., respectively. The test period extended over 2 to 4 weeks. During this time, the plants were tended and their response to the individual treatments was evaluated.
as §4
Herbicide A-1 and acetochlor were, together with addition of 0.5% MSO (methylated sed oil) as adjuvant, formulated in water as distribution medium (water volume 200 l/ha) and sprayed with commercial flat fan nozzles.
Herbicide A-1, acetochlor and mesotrione were, together with addition of 0.5 v/v % MSO (methylated sed oil) as adjuvant, formulated in water as distribution medium (water volume 200 l/ha) and sprayed with commercial flat fan nozzles.
Herbicide A-1, acetochlor and topramezone were, together with addition of 0.5 v/v % MSO (methylated sed oil) as adjuvant, formulated in water as distribution medium (water volume 200 l/ha) and sprayed with commercial flat fan nozzles.

[3] = AMARE, growth stage 31-49, height 10-12 cm, 7 DAT, g ai/ha: A-1 12.5, B 1050
[4] = AMARE, growth stage 31-49, height 10-12 cm, 21 DAT, g ai/ha: A-1 12.5, B 1050
[5] = DIGSA, growth stage 22, height 10-15 cm, 7 DAT, g ai/ha: A-1 12.5, B 1050
[6] = DIGSA, growth stage 22, height 10-15 cm, 21 DAT, g ai/ha: A-1 12.5, B 1050
[7] = DIGSA, growth stage 22, height 10-15 cm, 42 DAT, g ai/ha: A-1 12.5, B 1050
[8] = ECHCG, growth stage 22-23, height 19-30 cm, 7 DAT, g ai/ha: A-1 12.5, B 1050
[9] = ECHCG, growth stage 22-23, height 19-30 cm, 7 DAT, g ai/ha: A-1 18, B 1050
[10] = ECHCG, growth stage 22-23, height 19-30 cm, 21 DAT, g ai/ha: A-1 12.5, B 1050
[11] = ECHCG, growth stage 22-23, height 19-30 cm, 21 DAT, g ai/ha: A-1 18, B 1050
[12] = ECHCG, growth stage 22-23, height 19-30 cm, 42 DAT, g ai/ha: A-1 12.5, B 1050
[13] = ECHCG, growth stage 22-23, height 19-30 cm, 42 DAT, g ai/ha: A-1 18, B 1050
[14] = GLXMA, growth stage 12-13, height 7-11 cm, 42 DAT, g ai/ha: A-1 18, B 1050
[15] = HORVW, growth stage 23-29, height 20-25 cm, 21 DAT, g ai/ha: A-1 12.5, B 1050
[16] = HORVW, growth stage 23-29, height 20-25 cm, 21 DAT, g ai/ha: A-1 18, B 1050
[17] = HORVW, growth stage 23-29, height 20-25 cm, 28 DAT, g ai/ha: A-1 12.5, B 1050
[18] = HORVW, growth stage 23-29, height 20-25 cm, 28 DAT, g ai/ha: A-1 18, B 1050
[19] = ZEAMX, growth stage 15-16, height 50-60 cm, 7 DAT, g ai/ha: A-1 12.5, B 1050
[20] = ZEAMX, growth stage 15-16, height 50-60 cm, 21 DAT, g ai/ha: A-1 12.5, B 1050
[21] = ZEAMX, growth stage 15-16, height 50-60 cm, 28 DAT, g ai/ha: A-1 12.5, B 1050
[22] = ZEAMX, growth stage 15-16, height 50-60 cm, 28 DAT, g ai/ha: A-1 18, B 1050
[23] = ABUTH, growth stage 15, 7 DAT, g ai/ha: A-1 0.5, B 200, C-24 50
[24] = ABUTH, growth stage 15, 7 DAT, g ai/ha: A-1 0.5, B 200, C-25 3.125
[25] = ABUTH, growth stage 15, 21 DAT, g ai/ha: A-1 0.25, B 200, C-24 50
[26] = AVEFA, growth stage 11, 7 DAT, g ai/ha: A-1 2, B 200, C-25 3.125
[27] = AVEFA, growth stage 11, 21 DAT, g ai/ha: A-1 2, B 200, C-24 50
[28] = AVEFA, growth stage 11, 21 DAT, g ai/ha: A-1 2, B 200, C-25 3.125
[29] = AVEFA, growth stage 12, 7 DAT, g ai/ha: A-1 2, B 400
[30] = AVEFA, growth stage 12, 19 DAT, g ai/ha: A-1 2, B 400
[31] = BRADC, growth stage 11, 21 DAT, g ai/ha: A-1 2, B 200, C-25 3.125
[32] = COMBE, growth stage 13, 21 DAT, g ai/ha: A-1 1, B 200, C-24 50
[33] = COMBE, growth stage 13, 21 DAT, g ai/ha: A-1 1, B 200, C-25 3.125
[34] = ECHCG, growth stage 12, 21 DAT, g ai/ha: A-1 2, B 200, C-24 50
[35] = ECHCG, growth stage 12, 21 DAT, g ai/ha: A-1 2, B 200, C-25 3.125
[36] = ECHCG, growth stage 13, 7 DAT, g ai/ha: A-1 0.5, B 400
[37] = ECHCG, growth stage 13, 19 DAT, g ai/ha: A-1 0.5, B 400
[38] = ELEIN, growth stage 14, 7 DAT, g ai/ha: A-1 2, B 400
[39] = ERICA, growth stage 19, 7 DAT, g ai/ha: A-1 2, B 200, C-25 3.125
[40] = GLXMA, growth stage 18, 7 DAT, g ai/ha: A-1 1, B 200, C-25 3.125
[41] = KCHSC, growth stage 29, 21 DAT, g ai/ha: A-1 1, B 200, C-25 3.125
[42] = KCHSC, growth stage 29, 21 DAT, g ai/ha: A-1 2, B 200, C-25 3.125
[43] = LOLMU, growth stage 11, 7 DAT, g ai/ha: A-1 2, B 200, C-25 3.125
[44] = LOLMU, growth stage 11, 21 DAT, g ai/ha: A-1 2, B 200, C-25 3.125
[45] = ZEAMX, growth stage 12, 21 DAT, g ai/ha: A-1 2, B 200, C-24 50
[46] = ZEAMX, growth stage 12, 21 DAT, g ai/ha: A-1 2, B 200, C-25 3.125

CCOC(=O)COc1ccccc1Oc1nc(-n2c(=O)cc(C(F)(F)F)n(C)c2=O)c(F)cc1Cl [A-1, ethyl 2-[2-[[3-chloro-5-fluoro-6-[3-methyl-2,6-dioxo-4-(trifluoromethyl)pyrimidin-1-yl]-2-pyridyl]oxy]phenoxy]acetate]
% Herbicidal activity (emerged weeds [1]; [3]): 95%
% Herbicidal activity (emerged weeds [1]; [4]): 80%
% Herbicidal activity (emerged weeds [1]; [5]): 75%
% Herbicidal activity (emerged weeds [1]; [6]): 70%
% Herbicidal activity (emerged weeds [1]; [7]): 70%
% Herbicidal activity (emerged weeds [1]; [8]): 55%
% Herbicidal activity (emerged weeds [1]; [9]): 55%
% Herbicidal activity (emerged weeds [1]; [10]): 50%
% Herbicidal activity (emerged weeds [1]; [11]): 55%
% Herbicidal activity (emerged weeds [1]; [12]): 45%
% Herbicidal activity (emerged weeds [1]; [13]): 50%
% Herbicidal activity (emerged weeds [1]; [14]): 85%
% Herbicidal activity (emerged weeds [1]; [15]): 70%
% Herbicidal activity (emerged weeds [1]; [16]): 80%
% Herbicidal activity (emerged weeds [1]; [17]): 95%
% Herbicidal activity (emerged weeds [1]; [18]): 95%
% Herbicidal activity (emerged weeds [1]; [19]): 80%
% Herbicidal activity (emerged weeds [1]; [20]): 70%
% Herbicidal activity (emerged weeds [1]; [21]): 40%
% Herbicidal activity (emerged weeds [1]; [22]): 70%
% Herbicidal activity (emerged weeds [2]; [23]): 85%
% Herbicidal activity (emerged weeds [2]; [24]): 85%
% Herbicidal activity (emerged weeds [2]; [25]): 60%
% Herbicidal activity (emerged weeds [2]; [26]): 55%
% Herbicidal activity (emerged weeds [2]; [27]): 30%
% Herbicidal activity (emerged weeds [2]; [28]): 30%
% Herbicidal activity (emerged weeds [2]; [29]): 75%
% Herbicidal activity (emerged weeds [2]; [30]): 75%
% Herbicidal activity (emerged weeds [2]; [31]): 30%
% Herbicidal activity (emerged weeds [2]; [32]): 80%
% Herbicidal activity (emerged weeds [2]; [33]): 80%
% Herbicidal activity (emerged weeds [2]; [34]): 30%
% Herbicidal activity (emerged weeds [2]; [35]): 30%
% Herbicidal activity (emerged weeds [2]; [36]): 40%
% Herbicidal activity (emerged weeds [2]; [37]): 15%
% Herbicidal activity (emerged weeds [2]; [38]): 75%
% Herbicidal activity (emerged weeds [2]; [39]): 80%
% Herbicidal activity (emerged weeds [2]; [40]): 90%
% Herbicidal activity (emerged weeds [2]; [41]): 60%
% Herbicidal activity (emerged weeds [2]; [42]): 75%
% Herbicidal activity (emerged weeds [2]; [43]): 10%
% Herbicidal activity (emerged weeds [2]; [44]): 10%
% Herbicidal activity (emerged weeds [2]; [45]): 40%
% Herbicidal activity (emerged weeds [2]; [46]): 40%

CCOCN(C(=O)CCl)c1c(C)cccc1CC [B, acetochlor]
% Herbicidal activity (emerged weeds [1]; [3]): 40%
% Herbicidal activity (emerged weeds [1]; [4]): 25%
% Herbicidal activity (emerged weeds [1]; [5]): 10%
% Herbicidal activity (emerged weeds [1]; [6]): 10%
% Herbicidal activity (emerged weeds [1]; [7]): 10%
% Herbicidal activity (emerged weeds [1]; [8]): 0%
% Herbicidal activity (emerged weeds [1]; [9]): 0%
% Herbicidal activity (emerged weeds [1]; [10]): 0%
% Herbicidal activity (emerged weeds [1]; [11]): 0%
% Herbicidal activity (emerged weeds [1]; [12]): 0%
% Herbicidal activity (emerged weeds [1]; [13]): 0%
% Herbicidal activity (emerged weeds [1]; [14]): 20%
% Herbicidal activity (emerged weeds [1]; [15]): 10%
% Herbicidal activity (emerged weeds [1]; [16]): 10%
% Herbicidal activity (emerged weeds [1]; [17]): 10%
% Herbicidal activity (emerged weeds [1]; [18]): 10%
% Herbicidal activity (emerged weeds [1]; [19]): 8%
% Herbicidal activity (emerged weeds [1]; [20]): 0%
% Herbicidal activity (emerged weeds [1]; [21]): 0%
% Herbicidal activity (emerged weeds [1]; [22]): 0%
% Herbicidal activity (emerged weeds [2]; [23]): 0%
% Herbicidal activity (emerged weeds [2]; [24]): 0%
% Herbicidal activity (emerged weeds [2]; [25]): 0%
% Herbicidal activity (emerged weeds [2]; [26]): 0%
% Herbicidal activity (emerged weeds [2]; [27]): 0%
% Herbicidal activity (emerged weeds [2]; [28]): 0%
% Herbicidal activity (emerged weeds [2]; [29]): 0%
% Herbicidal activity (emerged weeds [2]; [30]): 0%
% Herbicidal activity (emerged weeds [2]; [31]): 5%
% Herbicidal activity (emerged weeds [2]; [32]): 5%
% Herbicidal activity (emerged weeds [2]; [33]): 5%
% Herbicidal activity (emerged weeds [2]; [34]): 5%
% Herbicidal activity (emerged weeds [2]; [35]): 5%
% Herbicidal activity (emerged weeds [2]; [36]): 10%
% Herbicidal activity (emerged weeds [2]; [37]): 60%
% Herbicidal activity (emerged weeds [2]; [38]): 0%
% Herbicidal activity (emerged weeds [2]; [39]): 15%
% Herbicidal activity (emerged weeds [2]; [40]): 0%
% Herbicidal activity (emerged weeds [2]; [41]): 0%
% Herbicidal activity (emerged weeds [2]; [42]): 0%
% Herbicidal activity (emerged weeds [2]; [43]): 0%
% Herbicidal activity (emerged weeds [2]; [44]): 0%
% Herbicidal activity (emerged weeds [2]; [45]): 5%
% Herbicidal activity (emerged weeds [2]; [46]): 5%
